Data published in ChEMBL document CHEMBL4602699, “Identification and Optimization of EphA2-Selective Bicycles for the Delivery of Cytotoxic Payloads” (J Med Chem, 2020).

How the values were obtained:
[1] = human, plasma, 2 h, 2 µM
Description: (§1) Unbound fraction in human plasma at 2 uM incubated for 2 hrs by LC/MS/MS analysis

in vitro [2] = settings: human, plasma
Description: as §1

in vitro [3] = settings: mouse, plasma
Description: Half life in mouse plasma at 2 uM by LC/MS/MS analysis

in vitro [4] = settings: human, plasma; remark: listed apart in the source
Description: Half life in human plasma at 2 uM by LC/MS/MS analysis

HT-1080 = test: animal or person; settings: Rattus norvegicus, HT-1080, iv, 336 h, read-out: MED

| SMILES | Fu [1] | fraction unbound at 2 h, 2 µM (in vitro [2]) | half-life at 2 µM (in vitro [3]) [h] | half-life at 2 µM (in vitro [4]) [h] | minimal effective dose (HT-1080) [mg/kg] |
| --- | --- | --- | --- | --- | --- |
| CC(C)[C@H](NC(=O)[C@@H](CC(=O)O)NC(=O)[C@H](Cc1c[nH]cn1)NC(=O)CN(C)C(=O)CN(C)C(=O)CN(C)C(=O)CN(C)CC(=O)N(C)CC(=O)N(C)CC(=O)N(C)CC(=O)N(C)CC(=O)N(C)CC(=O)N(C)C(=O)CCN)C(=O)N1CCC[C@H]1C(=O)N[C@@H]1CSCc2cc3cc(c2)CSC[C@H](C(N)=O)NC(=O)[C@@H](CC(=O)O)NC(=O)[C@@H]2CCCN2C(=O)[C@H](CCCCNC(=N)N)NC(=O)[C@H](CC(N)=O)NC(=O)[C@H](C(C)(C)C)NC(=O)[C@@H]2CCCN2C(=O)[C@H](CSC3)NC(=O)[C@H](Cc2cccc3ccccc23)NC(=O)[C@H](Cc2ccccc2)NC(=O)C(C)(C)NC(=O)CNC(=O)[C@H](Cc2cccc3ccccc23)NC(=O)C(C)(C)NC1=O | Bld | – | – | – | – |
| CC(C)C[C@@H]1NC(=O)[C@@H]2CSCCC(=O)N3CN(CN(C3)C(=O)CCSC[C@H](NC(=O)[C@H](CC(=O)O)NC(=O)[C@H](CCCNC(=N)N)NC(=O)[C@H](C)NC(=O)CN(C)C(=O)CN(C)C(=O)CN(C)C(=O)CN(C)CC(=O)N(C)CC(=O)N(C)CC(=O)N(C)CC(=O)N(C)CC(=O)N(C)CC(=O)N(C)C(=O)CCN)C(=O)N3CCC[C@H]3C(=O)N[C@@H](CC(C)C)C(=O)N[C@@H](C(C)C)C(=O)N[C@@H](CC(N)=O)C(=O)N3CCC[C@H]3C(=O)N[C@@H](CC(C)C)C(=O)N2)C(=O)CCSC[C@@H](C(N)=O)NC(=O)C(CCCCNC(=N)N)NC(=O)[C@H](CC2CCc3ccccc32)NC(=O)[C@@H](CC(=O)O)NC(=O)[C@@H]2CCCN2C(=O)[C@H](Cc2c[nH]cn2)NC1=O (some centres undefined) | – | 0.41 | 33 | > 55 | – |
| CC(=O)N[C@@H](C)C(=O)N[C@@H](CCCNC(=N)N)C(=O)N[C@@H](CC(=O)O)C(=O)N[C@@H](CS)C(=O)N1CCC[C@H]1C(=O)N[C@@H](CC(C)C)C(=O)N[C@H](C(=O)N[C@@H](CC(N)=O)C(=O)N1CCC[C@H]1C(=O)N[C@@H](CC(C)C)C(=O)N[C@@H](CS)C(=O)N[C@@H](CC(C)C)C(=O)N[C@@H](Cc1cnc[nH]1)C(=O)N1CCC[C@H]1C(=O)NCC(=O)N[C@@H](Cc1c[nH]c2ccccc12)C(=O)N[C@H](C(=O)N[C@@H](CS)C(=O)O)[C@@H](C)O)C(C)C | – | 0.646 | 3.6 | 3.7 | – |
| COc1cc2cc(c1Cl)N(C)C(=O)C[C@@H](OC(=O)[C@@H](C)N(C)C(=O)CCSSCCCC(=O)NCCC(=O)N(C)C(=O)CN(C)C(=O)CN(C)C(=O)CN(C)C(=O)CN(C)C(=O)CN(C)C(=O)CN(C)CC(=O)N(C)CC(=O)N(C)CC(=O)N(C)CC(=O)N[C@@H](C)C(=O)N[C@@H](CCCNC(=N)N)C(=O)N[C@@H](CC(=O)O)C(=O)N[C@H]1CSCCC(=O)N3CN4CN(C3)C(=O)CCSC[C@H](NC(=O)[C@H](CC(C)C)NC(=O)[C@@H]3CCCN3C(=O)[C@H](CC(N)=O)NC(=O)[C@H](C(C)C)NC(=O)[C@H](CC(C)C)NC(=O)[C@@H]3CCCN3C1=O)C(=O)N[C@@H](CC(C)C)C(=O)N[C@@H](Cc1c[nH]cn1)C(=O)N1CCC[C@H]1C(=O)N[C@H](CC(=O)O)C(=O)N[C@@H](CC1CCc3ccccc31)C(=O)NC(CCCCNC(=N)N)C(=O)N[C@H](C(N)=O)CSCCC4=O)[C@@]1(C)O[C@@H]1[C@@H](C)[C@H]1C[C@](O)(NC(=O)O1)[C@@H](OC)/C=C/C=C(\C)C2 (some centres undefined) | – | 0.44 | – | – | 3 |
